Results reported in PMC8474116, “Discovery of Novel Acetamide-Based Heme Oxygenase-1 Inhibitors with Potent In Vitro Antiproliferative Activity” (Journal of Medicinal Chemistry, 2021).

What was measured:
HO-1 = molecular target: T1, HO-1 (Rattus norvegicus, UniProt P06762); experiment: HO-1 enzymatic activity, rat spleen microsomal fraction (bilirubin formation); type: biochemical; settings: for IC50: rat spleen microsomal fraction, mean of triplicate ± SD; for SI (HO-2/HO-1): ratio of HO-2 and HO-1 IC50
T1 construct: selected to use the most native (i.e., closest to in vivo) forms of HO-1 and HO-2; from tissue; host or cells: rat spleen (male Sprague-Dawley), microsomal fraction
T1 sequence (P06762 1-289): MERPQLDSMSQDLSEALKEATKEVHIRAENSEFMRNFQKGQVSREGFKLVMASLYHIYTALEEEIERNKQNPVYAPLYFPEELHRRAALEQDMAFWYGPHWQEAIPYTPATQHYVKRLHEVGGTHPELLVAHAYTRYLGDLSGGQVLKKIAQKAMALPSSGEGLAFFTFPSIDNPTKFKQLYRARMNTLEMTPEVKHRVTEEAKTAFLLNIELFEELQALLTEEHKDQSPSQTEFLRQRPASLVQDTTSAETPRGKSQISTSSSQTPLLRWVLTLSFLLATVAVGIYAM
Experimental: (§1) HO-1 and HO-2 were obtained, respectively, from the rat spleen and brain as the microsomal fraction prepared by differential centrifugation; the dominance of HO-1 protein in the rat spleen and HO-2 in the rat brain has been well documented.[24] These particular microsomal preparations were selected to use the most native (i.e., closest to in vivo) forms of HO-1 and HO-2. Spleen and brain (Sprague-Dawley rats) microsomal fractions were prepared according to the procedure outlined by Ryter et al.[2] The experiments reported in the present paper complied with the current Italian law and met the guidelines of the Institutional Animal Care and Use Committee of the Ministry of Health (Directorate General for Animal Health and Veterinary Medicines, Italy) “Dosing of enzymatic activities in rat microsomes” (2018–2022), project code 02769.N.VLY. The experiments were performed in male Sprague-Dawley albino rats (150 g body weight and age 45 d). They had free access to water and were kept at room temperature with a natural photoperiod (12 h light–12 h dark cycle). For measuring HO-1 and HO-2 activities, each rat was sacrificed and their spleen and brain were excised and weighed. A homogenate (15%, w/v) of spleens and brains pooled from four rats was prepared in ice-cold HO-homogenizing buffer (50 mM Tris buffer, pH 7.4, containing 0.25 M sucrose) using a Potter–Elvehjem homogenizing system with a Teflon pestle. The microsomal fraction of rat spleen and brain homogenate was obtained by centrifugation at 10 000g for 20 min at 4 °C, followed by centrifugation of the supernatant at 100 000g for 60 min at 4 °C. The 100 000g pellet (microsomes) was resuspended in 100 mM of potassium phosphate buffer, pH 7.8, containing 2 mM MgCl2 with a Potter–Elvehjem homogenizing system. The rat spleen and brain microsomal fractions were divided into equal aliquots, placed into microcentrifuge tubes, and stored at −80 °C for up to 2 months.
(§2) Liver cytosol has been used as a source of biliverdin reductase. Rat liver was perfused through the hepatic portal vein with cold 0.9% NaCl; then, it was cut and flushed with 2 × 20 mL of ice-cold PBS to remove all of the blood. Liver tissue was homogenized in 3 volumes of a solution containing 1.15% KCl w/v and Tris buffer 20 mM, pH 7.8 on ice. Homogenates were centrifuged at 10 000g for 20 min at 4 °C. The supernatant was decanted and centrifuged at 100 000g for 1 h at 4 °C to sediment the microsomes. The 100 000g supernatant was saved and then stored in small amounts at −80 °C after its protein concentration was measured.
(§3) The HO-1 and HO-2 activities were determined by measuring the bilirubin formation using the difference in absorbance at 464–530 nm, as described by Ryter et al.[2] Reaction mixtures (500 μL) consisted of 20 mM of Tris–HCl, pH 7.4, (1 mg/mL) microsomal extract, 0.5–2 mg/mL of biliverdin reductase, 1 mM of NADPH, 2 mM of glucose 6-phosphate (G6P), 1 U of G6P dehydrogenase, 25 μM of hemin, and 10 μL of DMSO (or the same volume of DMSO solution of test compounds to a final concentration of 100, 10, and 1 μM). Incubations were carried out for 60 min at 37 °C in a circulating water bath in the dark. Reactions were stopped by adding the same volume of chloroform. After recovering the chloroform phase, the amount of bilirubin formed was measured with a double-beam spectrophotometer as OD464–530 nm (extinction coefficient, 40 mM/cm^–1 for bilirubin). One unit of the enzyme was defined as the amount of enzyme catalyzing the formation of 1 nmol of bilirubin/mg protein/h.

HO-2 = molecular target: T2, HO-2 (Rattus norvegicus, UniProt P23711); experiment: HO-2 enzymatic activity, rat brain microsomal fraction (bilirubin formation); type: biochemical; settings: mean of triplicate ± SD
T2 construct: selected to use the most native (i.e., closest to in vivo) forms of HO-1 and HO-2; from tissue; host or cells: rat brain (male Sprague-Dawley), microsomal fraction
T2 sequence (P23711 1-315): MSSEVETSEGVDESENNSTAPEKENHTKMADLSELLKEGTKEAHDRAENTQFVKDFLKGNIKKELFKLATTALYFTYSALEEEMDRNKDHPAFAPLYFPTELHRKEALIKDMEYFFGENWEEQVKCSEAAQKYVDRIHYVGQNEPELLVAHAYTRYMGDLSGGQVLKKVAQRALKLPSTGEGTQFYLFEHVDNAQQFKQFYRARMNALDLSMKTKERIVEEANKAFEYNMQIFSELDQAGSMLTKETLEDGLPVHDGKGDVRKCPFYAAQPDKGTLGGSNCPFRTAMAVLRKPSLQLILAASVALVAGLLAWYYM
Experimental: as §1, §2, §3

U87MG cells = experiment: MTT cell viability assay, U87MG; type: cell-based, human; settings: 48 h
Experimental: (§4) Experiments were performed on human GBM cell lines U87MG (ATCCC number #HTB-14) and A172 (ATCCC #CRL-1620) on DU145 (ATCC HTB-81) and human lung adenocarcinoma A549 (ATCC CCL-185-LUC2). All cell lines were obtained from the American Type Culture Collection (ATCC, Rockville, MD). Cells were grown in Dulbecco’s modified Eagle’s medium (DMEM) supplemented with 10% of heat-inactivated fetal bovine serum (FBS), 100 U/mL of penicillin, and 100 μg/mL of streptomycin (Sigma-Aldrich, Steinheim, Germany). Cells were incubated at 37 °C in a humidified atmosphere with 5% CO2.
(§5) The effect of selected compounds 7i and 7l–p on cell viability was assessed by performing an MTT assay. Cells were seeded into 96-well plates at a density of 7 × 10^3 cells/well in 100 μL of culture medium. After 24 h, cells were treated with selected compounds at three different concentrations (1 μM, 10 μM, and 50 μM) for 48 h. Following treatments, 0.5 mg/mL of 3-[4,5-dimethylthiazol-2-yl]-2,5-diphenyltetrazolium bromide (MTT) (Sigma-Aldrich) was added to each well and incubated for 4 h at 37 °C. Finally, dimethyl-sulfoxide (DMSO) was used to dissolve formazan salts, and absorbance was measured at 570 nm in a microplate reader (Biotek Synergy-HT). Eight replicate wells were used for each group.

A172 cells = experiment: MTT cell viability assay, A172; type: cell-based, human; settings: 48 h
Experimental: as §4, §5

[1] = all tested concentrations (1, 10, 50 μM)
[2] = at both concentrations 1 and 10 μM

| Compound | HO-1 vs HO-2 selectivity (in words) (HO-1) | IC50 (HO-1) [nM] | SI (HO-2/HO-1) (HO-1) | IC50 (HO-2) [nM] | cell viability reduction (U87MG cells; at all of the tested concentrations (1, 10, 50 μM)) | cell viability reduction (in words) (A172 cells; [1]) | fold more selective for the inducible isoform (HO-1 over HO-2) (HO-1) | cell viability reduction (U87MG cells; [2]) | cell viability reduction (in words) (A172 cells; 10 μM) | cell viability reduction (in words) (A172 cells; 50 μM) |
| --- | --- | --- | --- | --- | --- | --- | --- | --- | --- | --- |
| CN(C(=O)Cn1ccnc1)C(c1ccccc1)c1ccc(Cl)cc1 (stereo not shown) [7l, N-((4-Chlorophenyl)(phenyl)methyl)-2-(1H-imidazol-1-yl)-N-methylacetamide] | superimposable HO-1 and HO-2 IC50 values | 950 ± 40 | 1.3 | 1200 ± 70 | more than 60% | remarkable reduction of cell viability |  |  |  |  |
| CN(C(=O)Cn1ccnc1)C(c1ccccc1)c1ccc(OCc2ccccc2)cc1 (stereo not shown) [7o, N-((4-(Benzyloxy)phenyl)(phenyl)methyl)-2-(1H-imidazol-1-yl)-N-methylacetamide] |  | 1200 ± 110 | 9.3 | 11200 ± 180 |  | remarkable reduction of cell viability | 9 fold | around 20% |  |  |
| CN(C(=O)Cn1ccnc1)C(c1ccccc1)c1ccc(I)cc1 (stereo not shown) [7n, 2-(1H-Imidazol-1-yl)-N-((4-iodophenyl)(phenyl)methyl)-N-methylacetamide] |  | 950 ± 90 | 48.3 | 45900 ± 1670 |  |  | about 48 fold | more than 30% | milder activity | only at 50 μM |
